From patent publication EP2281824A1, “Furan-imidazolone derivatives, for the treatment of cognitive, neurodegenerative or neuronal diseases or disorders” (NOSCIRA, S.A., priority 2009, dated 2011)

Columns and labels:
[1] = target: T1, BACE-1 β-Secretase recombinant human enzyme (Homo sapiens, UniProt P56817); experiment: BACE assay (time-resolved fluorescence, TruPoint BACE1 substrate); format: biochemical; conditions: 200 nM peptide substrate, 8 nM enzyme, sodium acetate pH 4.5, 1 h at room temperature; read-out: IC50 Inhibition of BACE Activity
T1 construct: purchased R&D Systems
T1 sequence (P56817 46-501): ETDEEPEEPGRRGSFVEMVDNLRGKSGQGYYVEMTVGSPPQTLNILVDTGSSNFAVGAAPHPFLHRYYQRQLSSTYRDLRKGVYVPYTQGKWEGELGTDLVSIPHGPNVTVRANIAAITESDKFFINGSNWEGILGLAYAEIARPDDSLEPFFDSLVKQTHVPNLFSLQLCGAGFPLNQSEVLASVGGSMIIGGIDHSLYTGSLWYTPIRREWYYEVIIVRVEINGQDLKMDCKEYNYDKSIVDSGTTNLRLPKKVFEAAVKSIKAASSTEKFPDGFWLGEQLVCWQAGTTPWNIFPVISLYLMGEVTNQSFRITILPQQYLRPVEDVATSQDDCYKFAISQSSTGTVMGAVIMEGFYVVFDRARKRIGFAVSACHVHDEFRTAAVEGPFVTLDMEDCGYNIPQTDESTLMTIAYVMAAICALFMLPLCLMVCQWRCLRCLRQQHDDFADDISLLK
Method: This assay is based on time-resolved fluorescence ("TRF") technology, using a. BACE peptide substrate containing a fluorescent europium chelate coupled to one end and a quencher coupled to the other end. […] The reagents which are used in this assay are BACE-1 β-Secretase recombinant human enzyme (R&D Systems, Minneapolis, MN), TruPoint™ BACE1 substrate (Perkin Elmer Waltham, MA), sodium acetate, CHAPS and EDTA (Sigma Aldrich, St Louis, MO). The assay is carried out in a 96-well microplate in a final volume of 100 µl using 200 nM peptide substrate and 8 nM enzyme in 50 mM sodium acetate pH 4.5 with 1 mM EDTA and 0.2% (w/v) CHAPS. The plates are incubated for 1 h in the dark at room temperature and then read in a fluorimeter plate reader provided with time-resolved fluorescence capabilities (PolarStar Optima™, BMG-Labtech, Offenburg, Germany) using 337 nm as excitation wavelength and 615 nm as the emission wavelength. Compounds are tested in duplicate using a concentration range extending from 5 nM to 100 µM, using 10 µM H-4848 (commercial BACE inhibitor, BACHEM, Bubendorf, Switzerland) as control.
The compounds of formula (I) of the present invention where submitted to the above indicated assay, in order to determine their BACE activity inhibition. The results, indicated in IC50 format, are indicated below in Table I. IC50 is the half maximal inhibitory concentration, which is a measure of the effectiveness of a compound in inhibiting biological or biochemical function. This quantitative measure indicates the concentration of a particular substance is needed to inhibit a given biological process by half. In other words, it is the half maximal (50%) inhibitory concentration (IC) of a substance.

Aβ secretion = experiment: Inhibition of beta-amyloid secretion (Aβ1-40 ELISA of cell culture supernatants); format: cell-based; conditions: CHO-7W; CHO7w cell line stably transfected with human BACE, 48 hours, Aβ (1-40) in supernatants
Method: To quantify human Aβ1-40 an ELISA-based commercial kit was used (Immunoassay Kit Human β Amyloid 1-40, The Genetics Company, Schlieren, Switzerland). Aβ (1-40) peptide was quantified from cell culture supernatants using a CHO7w cell line stably transfected with human BACE. β-Secretase inhibitor IV (Calbiochem, San Diego, CA), was used as Aβ secretion reduction positive control in all the Aβ secretion studies. Cells were grown in DMEM supplemented with 2% Foetal bovine serum, 1% penicillin-streptomycin, 1% L-glutamine and 200 µg/ml G418. Cells were seeded in 96-well culture microplates at 5000 cells/well and treated with 10 µM β secretase inhibitor IV or compounds for 48 hours. Then cell culture supernatants were collected and analyzed according to the kit manufacturer's instructions. At 10 µM β-secretase inhibitor IV the inhibition of Aβ secretion inhibition is usually between 70 and 100 %.
Some of the compounds of formula (I) of the present invention where submitted to the above indicated assay, in order to determine their capacity of inhibiting Aβ secretion. The results, indicated in IC50 format, are indicated below in Table I. Table I

Row | IC50 [1] [µM] | IC50 (Aβ secretion) [µM] | Structure (SMILES)
1 | 0.11 | – | NC1=NC(=Cc2ccc(-c3ccc([N+](=O)[O-])cc3)o2)C(=O)N1 [Compound 1, 2-amino-5-[5-(4-nitro-phenyl)-furan-2-ylmethylene]-3,5 dihydro-imidazol-4-one]
2 | 0.369 | – | COc1ccc(-c2ccc(C=C3N=C(N)NC3=O)o2)c(OC)c1 [Compound 3, 2-amino-5-[5-(2,4-dimethoxy-phenyl)-furan-2-ylmethylene]-3,5-dihydro-imidazol-4-one]
3 | 0.25 | 30 | NC1=NC(=Cc2ccc(-c3ccc4c(c3)OCO4)o2)C(=O)N1 [Compound 4, 2-amino-5-(5-benzo[1,3]dioxol-5-yl-furan-2-ylmethylene)-3,5-dihydro-imidazol-4-one]
4 | 0.36 | 40 | COc1ncccc1-c1ccc(C=C2N=C(N)NC2=O)o1 [Compound 5, 2-amino-5-[5-(2-methoxy-pyridin-3-yl)-furan-2-ylmethylene]-3,5-dihydro-imidazol-4-one]
5 | 1.32 | – | COc1ncc(-c2ccc(C=C3N=C(N)NC3=O)o2)c(OC)n1 [Compound 6, 2-amino-5-[5-(2,4-dimethoxy-pyrimidin-5-yl)-furan-2-ylmethylene]-3,5-dihydro-imidazol-4-one]
6 | 0.39 | – | Cc1noc(C)c1-c1ccc(C=C2N=C(N)NC2=O)o1 [Compound 7, 2-Amino-5-[5-(3,5-dimethyl-isoxazol-4-yl)-furan-2-ylmethylene]-3,5-dihydro-imidazol-4-one]
7 | 1.3 | – | NC1=NC(=Cc2ccc(-c3ncccn3)o2)C(=O)N1 [Compound 8, 2-amino-5-(5-pyrimidin-2-yl-furan-2-ylmethylene)-3,5-dihydro-imidazol-4-one]
8 | 0.711 | 45 | COC(=O)c1ccc(OC)c(-c2ccc(C=C3N=C(N)NC3=O)o2)c1 [Compound 9, 3-[5-(2-amino-5-oxo-1,5-dihydro-imidazol-4-ylidenemethyl)-furan-2-yl]-4-methoxy-benzoic acid methyl ester]
9 | 0.319 | – | COc1ccc(-c2ccc(C=C3N=C(N)NC3=O)o2)cc1Cl [Compound 10, 2-Amino-5-[5-(3-chloro-4-methoxy-phenyl)-furan-2-ylmethylene]-3,5-dihydro-imidazol-4-one]
10 | 0.22 | – | COc1ccc(C#N)cc1-c1ccc(C=C2N=C(N)N(C)C2=O)o1 [Compound 11, 3-[5-(2-Amino-1-methyl-5-oxo-1,5-dihydro-imidazol-4-ylidenemethyl)-furan-2-yl]-4-methoxy-benzonitrile]
11 | 1.23 | – | COc1ccc(-c2ccc(C=C3N=C(N)N(Cc4ccccc4)C3=O)o2)cc1Cl [Compound 12, 2-Amino-3-benzyl-5-[5-(3-chloro-4-methoxy-phenyl)-furan-2-ylmethylene]-3,5-dihydro-imidazol-4-one]
12 | 0.81 | – | COCCN1C(=O)C(=Cc2ccc(-c3ccc(OC)c(Cl)c3)o2)N=C1N [Compound 13, 2-Amino-5-[5-(3-chloro-4-methoxy-phenyl)-furan-2-ylmethylene]-3-(2-methoxy-ethyl)-3,5-dihydro-imidazol-4-one]
13 | 0.54 | – | COc1ncccc1-c1ccc(C=C2N=C(N)N(C)C2=O)o1 [Compound 14, 2-Amino-5-[5-(2-methoxy-pyridin-3-yl)-furan-2-ylmethylene]-3-methyl-3,5-dihydro-imidazol-4-one]
14 | 0.346 | – | COc1ccc(-c2ccc(C=C3N=C(N)N(C)C3=O)o2)c(OC)c1 [Compound 15, 2-Amino-5-[5-(2,4-dimethoxy-phenyl)-furan-2-ylmethylene]-3-methyl-3,5-dihydro-imidazol-4-one]
15 | 1.23 | – | Cc1noc(C)c1-c1ccc(C=C2N=C(N)N(C)C2=O)o1 [Compound 16, 2-amino-5-[5-(3,5-dimethyl-isoxazol-4-yl)-furan-2-ylmethylene]-3-methyl-3,5-dihydro-imidazol-4-one]
16 | 0.422 | 35 | COc1ccc(-c2ccc(C=C3N=C(N)NC3=O)o2)cc1 [Compound 17, 2-Amino-5-[5-(4-methoxy-phenyl)-furan-2-ylmethylene]-3,5-dihydro-imidazol-4-one]
17 | 0.4 | – | CN1C(=O)C(=Cc2ccc(-c3ccc([N+](=O)[O-])cc3)o2)N=C1N [Compound 18, Acetate 1-methyl-4-[5-(4-nitro-phenyl)-furan-2-ylmethylene]-5-oxo-4,5-dihydro-1H-imidazol-2-yl-ammonium]

Row | Structure (SMILES) | IC50 [1] [µM] | IC50 (Aβ secretion) [µM]
18 | COc1ccc(-c2ccc(C=C3N=C(N)N(C)C3=O)o2)cc1Cl [Compound 2, 2-amino-S-[S-(3-chloro-4-methoxy-phenyl)-furan-2-ylmethylene]-3-methyl-3,5-dihydro-imidazol-4-one] | 0.326 | –
